Like-named read-outs stand apart in the source and are kept apart here.
What was measured:
CXCR4 = CXCR4 mRNA activation in HCT116 stably expressing dCas9 and MS2-FKBP*x2, qRT-PCR; format: cell-based, human; settings: FIG. 2C; 5 nM; 48 hrs
Protocol: To further explore the activation potential of the SLF*-CEMa, their ability to target endogenous genes was evaluated (FIGS. 2A and 2B). Lentivirus was used to establish a stable HCT116 cell line expressing dCas9 and MS2-FKBP*x2 constructs, selecting for cells with antibiotic resistance. […] All CEMs were screened for their ability to activate the CXCR4 gene at 5 nM (FIG. 2C). RNA extraction and quantitative RT-PCR (qRT-PCR) were performed after 48 hours of CEM treatment.
To determine the optimal treatment concentration of the SLF*-CEMa molecules in this context, HCT116 cells were treated with 1 nM, 5 nM, 25 nM, and 50 nM of CEM203, CEM207, or CEM87. […] After 48 hours, RNA extraction followed by qRT-PCR was performed to evaluate the change in mRNA expression of CXCR4 (FIG. 2D). […] To directly compare this induced activation to other CRISPR-Cas9-based epigenetic activators, dCas9-VPR and dCas9-p300 constructs were virally infected into HCT116 cells and CXCR4 activation assessed in a similar fashion (FIGS. 2A and 2B).
To determine the time at which SLF*-CEMa most effectively induces gene activation, CXCR4 gene expression changes over time were investigated in dCas9 and MS2-FKBP*x2 stably infected HCT116 cells. Cells were treated with either vehicle, […] (FIG. 3A). RNA extraction and qRT-PCR were performed at 12, 24, 48, 72, and 96 hrs time points (FIG. 3B).
To investigate if endogenous gene activation triggered by the SLF*-CEMa compounds is also reversible, HCT116 cells were treated with CEM203 (50 nM) or CEM207 (25 nM) for 24 hours after transfecting CXCR4 gRNA, and then the CEMs were removed by media exchange at various time points. […] Likewise, it was investigated whether treatment with excess AP1867 could further reverse gene activation, potentially in a more robust fashion than with washout alone if there is any remaining intracellular SLF*-CEMa. To test this, after 24 hours of SLF*-CEMa treatment, a media exchange containing 20 μM AP1867 was performed (FIGS. 3C and 3D).
RNA extraction and qRT-PCR. All RNA extraction experiments were conducted in 12-well plate format. Culturing medium was removed, and cells were washed with 1×PBS, following with 0.05% trypsin to disassociate. After being quenched by medium and centrifuged, cells were washed with 1×PBS, and the RNA extraction was performed by using RNeasy Plus Mini kit (Qiagen, 74134). RT-qPCR was conducted by using RNA-to CT 1-step kit (Thermo Fisher Scientific, 4389986). The primer sets used in quantifying each gene can be found in Table 4.

TRE3G-GFP reporter gene [1] = settings: WT FKBP (MS2-FKBPx2), 48 hrs
Protocol: HCT116 cells were transfected with TRE3G-GFP, dCas9, MS2-FKPB*x2, and TRE3G gRNA or NT gRNA. After 48 hrs of 10 nM SLF*-CEMa treatment, flow cytometry was performed and mean fluorescent value was collected. […] TRE3G-GFP, dCas9, MS2-FKBP*2, TRE3G gRNA or NT gRNA were transfected into HCT116 cells. The media was changed to media with 5 nM CEM207 together with 0 nM, 50 nM, 500 nM or 5000 nM of AP1867, respectively. After 48 hrs chemical exposure, flow cytometry was performed and the mean fluorescent value was measured in each group of cells. […] FIGS. 5D and 5E are dose curves of CEMa molecules activating the GFP reporter gene in HCT116 cells using WT FKBP and dCas9 as DNA binding module. HCT116 cells were transfected with dCas9, MS2-FKBPx2, TRE3G-GFP constructs, along with TRE3G gRNA or NT gRNA. Cells were treated with different concentrations of CEMa molecules for 48 hrs before flow cytometry was conducted. […] Error bars represent the standard deviation.
To better understand the activity of SLF*-CEMa in the WT FKBP-based GFP reporter assay, a similar dose-response assay was conducted in HCT116 cells transfected with dCas9 and MS2-FKBPx2 (FIGS. 1D and 1E).
Flow cytometry. All flow cytometry experiments were performed with Attune Nxt as previously described. […] Significance was determined by Student's t-test.

TRE3G-GFP reporter gene [2] = assay: TRE3G-GFP reporter gene activation in HCT116, dCas9 + MS2-FKBP*x2 (F36V) system, flow cytometry; format: cell-based, human; set-up: fold change, GFP: reference not given here; settings: for fold change, GFP (Treated vs Non-Treated): FIG. 1E, 48 hours; for fold change, GFP: 48 hrs

In the case of `CC[C@H](C(=O)N1CCCC[C@H]1C(=O)O[C@H](CCc1ccc(OC)c(OC)c1)c1cccc(OCC(=O)NCCOCCOCCOCCNC(=O)C[C@@H]2N=C(c3ccc(Cl)cc3)c3cc(OC)ccc3-n3c(C)nnc32)c1)c1cc(OC)c(OC)c(OC)c1` [CEM202, (1R)-1-(3-((17-((4S)-6-(4-Chlorophenyl)-8-methoxy-1-methyl-4/I-benzo[f][1,2,4]triazolo[4,3-a][1,4]diazepin-4-yl)-2,16-dioxo-6,9,12-trioxa-3,15-diazaheptadecyl)oxy)phenyl)-3-(3,4-dimethoxyphenyl) propyl (2S)-1-((S)-2-(3,4,5-trimethoxyphenyl)butanoyl) piperidine-2-carboxylate], the “fold change, CXCR4 mRNA (Treated vs Non-Treated)” value (CXCR4) is reported as 3.5 fold, the “fold change, GFP (Treated vs Non-Treated)” value (TRE3G-GFP reporter gene [1]; FIG. 5D, 10 nM) is reported as 0.9 fold and the “fold change, GFP (Treated vs Non-Treated)” value (TRE3G-GFP reporter gene [1]; FIG. 5D, 25 nM) is reported as 1.0 fold. The “fold change, GFP (Treated vs Non-Treated)” value (TRE3G-GFP reporter gene [1]; FIG. 5D, 50 nM) was 1.1 fold, the “fold change, GFP (Treated vs Non-Treated)” value (TRE3G-GFP reporter gene [1]; FIG. 5D, 100 nM) was 5.3 fold and the “fold change, GFP (Treated vs Non-Treated)” value (TRE3G-GFP reporter gene [1]; FIG. 5D, 200 nM) was 11.6 fold. The “fold change, GFP (Treated vs Non-Treated)” value (TRE3G-GFP reporter gene [1]; FIG. 5D, 400 nM) was 17.5 fold, the “fold change, GFP (Treated vs Non-Treated)” value (TRE3G-GFP reporter gene [1]; FIG. 5E, 10 nM) was 0.9 fold and the “fold change, GFP (Treated vs Non-Treated)” value (TRE3G-GFP reporter gene [1]; FIG. 5E, 25 nM) was 0.9 fold. For the same compound, the “fold change, GFP (Treated vs Non-Treated)” value (TRE3G-GFP reporter gene [1]; FIG. 5E, 50 nM) was 1.0 fold, the “fold change, GFP (Treated vs Non-Treated)” value (TRE3G-GFP reporter gene [1]; FIG. 5E, 100 nM) was 1.0 fold and the “fold change, GFP (Treated vs Non-Treated)” value (TRE3G-GFP reporter gene [1]; FIG. 5E, 200 nM) was 1.0 fold. The “fold change, GFP (Treated vs Non-Treated)” value (TRE3G-GFP reporter gene [1]; FIG. 5E, 400 nM) was 1.0 fold, the “fold change, GFP (Treated vs Non-Treated)” value (TRE3G-GFP reporter gene [2]; TRE3G gRNA, 0.25 nM) was 1.1 fold and the “fold change, GFP (Treated vs Non-Treated)” value (TRE3G-GFP reporter gene [2]; TRE3G gRNA, 0.5 nM) was 1.3 fold. The “fold change, GFP (Treated vs Non-Treated)” value (TRE3G-GFP reporter gene [2]; TRE3G gRNA, 0.75 nM) was 1.3 fold, the “fold change, GFP (Treated vs Non-Treated)” value (TRE3G-GFP reporter gene [2]; TRE3G gRNA, 1 nM) was 1.5 fold and the “fold change, GFP (Treated vs Non-Treated)” value (TRE3G-GFP reporter gene [2]; TRE3G gRNA, 2.5 nM) was 2.8 fold. For the same compound, the “fold change, GFP (Treated vs Non-Treated)” value (TRE3G-GFP reporter gene [2]; TRE3G gRNA, 5 nM) was 12.5 fold, the “fold change, GFP (Treated vs Non-Treated)” value (TRE3G-GFP reporter gene [2]; TRE3G gRNA, 7.5 nM) was 13.9 fold and the “fold change, GFP (Treated vs Non-Treated)” value (TRE3G-GFP reporter gene [2]; TRE3G gRNA, 10 nM) was 15.0 fold. The “fold change, GFP (Treated vs Non-Treated)” value (TRE3G-GFP reporter gene [2]; TRE3G gRNA, 25 nM) was 22.0 fold, the “fold change, GFP (Treated vs Non-Treated)” value (TRE3G-GFP reporter gene [2]; TRE3G gRNA, 50 nM) was 28.8 fold and the “fold change, GFP (Treated vs Non-Treated)” value (TRE3G-GFP reporter gene [2]; TRE3G gRNA, 75 nM) was 27.1 fold. For the same compound, the “fold change, GFP (Treated vs Non-Treated)” value (TRE3G-GFP reporter gene [2]; TRE3G gRNA, 100 nM) was 25.5 fold, the “fold change, GFP” value (TRE3G-GFP reporter gene [2]; FIG. 5A, NT gRNA, 10 nM) was 0.5 fold and the “fold change, GFP” value (TRE3G-GFP reporter gene [2]; FIG. 5A, TRE3G gRNA, 10 nM) was 8.4 fold. For the same compound, the “fold change, GFP” value (TRE3G-GFP reporter gene [2]; FIG. 5C, NT gRNA, 0.25 nM) was 1.0 fold, the “fold change, GFP” value (TRE3G-GFP reporter gene [2]; FIG. 5C, NT gRNA, 0.5 nM) was 1.0 fold and the “fold change, GFP” value (TRE3G-GFP reporter gene [2]; FIG. 5C, NT gRNA, 0.75 nM) was 1.1 fold. For the same compound, the “fold change, GFP” value (TRE3G-GFP reporter gene [2]; FIG. 5C, NT gRNA, 1 nM) was 1.0 fold, the “fold change, GFP” value (TRE3G-GFP reporter gene [2]; FIG. 5C, NT gRNA, 2.5 nM) was 1.0 fold and the “fold change, GFP” value (TRE3G-GFP reporter gene [2]; FIG. 5C, NT gRNA, 5 nM) was 1.1 fold. For the same compound, the “fold change, GFP” value (TRE3G-GFP reporter gene [2]; FIG. 5C, NT gRNA, 7.5 nM) was 1.1 fold, the “fold change, GFP” value (TRE3G-GFP reporter gene [2]; FIG. 5C, NT gRNA, 10 nM) was 1.2 fold and the “fold change, GFP” value (TRE3G-GFP reporter gene [2]; FIG. 5C, NT gRNA, 25 nM) was 1.3 fold. The “fold change, GFP” value (TRE3G-GFP reporter gene [2]; FIG. 5C, NT gRNA, 50 nM) was 1.4 fold, the “fold change, GFP” value (TRE3G-GFP reporter gene [2]; FIG. 5C, NT gRNA, 75 nM) was 1.4 fold and the “fold change, GFP” value (TRE3G-GFP reporter gene [2]; FIG. 5C, NT gRNA, 100 nM) was 1.4 fold.

For `CC[C@H](C(=O)N1CCCC[C@H]1C(=O)O[C@H](CCc1ccc(OC)c(OC)c1)c1cccc(OCC(=O)NCCOCCOCCOCCOCCOCCOCCOCCNC(=O)C[C@@H]2N=C(c3ccc(Cl)cc3)c3c(sc(C)c3C)-n3c(C)nnc32)c1)c1cc(OC)c(OC)c(OC)c1` [CEM212, (R)-1-(3-((29-((S)-4-(4-Chlorophenyl)-2,3,9-trimethyl-6H-thieno[3,2-f][1,2,4]triazolo[4,3-a][1,4]diazepin-6-yl)-2,28-dioxo-6,9,12,15,18,21,24-heptaoxa-3,27-diazanonacosyl)oxy)phenyl)-3-(3,4-dimethoxyphenyl) propyl(S)-1-((S)-2-(3,4,5-trimethoxyphenyl)butanoyl) piperidine-2-carboxylate], the “fold change, CXCR4 mRNA (Treated vs Non-Treated)” value (CXCR4) was 12.6 fold, the “fold change, GFP” value (TRE3G-GFP reporter gene [2]; FIG. 5A, NT gRNA, 10 nM) was 0.4 fold and the “fold change, GFP” value (TRE3G-GFP reporter gene [2]; FIG. 5A, TRE3G gRNA, 10 nM) was 6.1 fold.
